Assay results: patent publication US20010049357A1, “Use of Hsp27 as an anti-inflammatory agent” (priority 1999, published 2001)
Where two headings read alike, the source gives them in different places.

What was measured:
human MØ [1] = assay: IL-10 production by human MØ (ELISA of culture supernates); format: cell-based
human MØ [2] = assay: TNFα production by human MØ (ELISA of culture supernates); format: cell-based
Normal control monocytes = format: cell-based, human
[3] = test system: IL-10 mRNA in human monocytes; assay: RNAse protection assay of IL-10 mRNA in human monocytes; format: cell-based
p38 MAPK = assay: Immunoblot for activation (phosphorylation) of p38 MAPK in human MØ; format: cell-based; conditions: after addition of Hsp 27 2 μg/ml
Description: (§1) Monocytes (1.5×10^6 cells) were cultured in serum free medium for 2 hrs and then stimulated with Hsp 27 (2 μg/ml) for different time periods (1 min to 3 hrs). Western blot analysis was performed, essentially as described previously (29). Briefly, cells were lysed using a buffer consisting of 1% Nonidet P-40, 50 mM HEPES (pH 7.2), 100 mM NaCl, 2 mM EDTA, 1 mM pyrophosphate, 2 mM Na3VO4, 10 mM NaF, 1 mM PMSF, 10 μg/ml leupeptin and 10 μg/ml aprotinin. Postnuclear supernates were harvested after centrifugation of the lysate for 15 min at 14,000 g at 4° C. Equal amounts of postnuclear lysates were boiled for 5 min in the presence of SDS sample buffer (reducing) and subjected to SDS-12% PAGE and then transferred to nitrocellulose membrane (Millipore Corp, Bedford, Mass.) in transfer buffer [25 mM Tris, 192 mM glycine, pH 8.3, 20% (V/V) methanol]. Membranes were first rinsed in TTBS (TBS with 0.1% Tween 20) and then blocked for 1 hr at room temperature in TTBS-5% W/V nonfat dry milk. The membrane was then incubated overnight at 4° C. with antiphospho-p38 MAPK antibody (rabbit polyclonal; New England Biolab) (1:1000 dilution in TTBS-1% BSA). Antibody-antigen complexes were detected with the aid of HRP-conjugated anti-rabbit secondary antibody (1:2000 dilution) (New England Biolab) followed by detection of the bands with ECL reagent (NEN Life Science Products). […]
(§2) To assess the activation (phosphorylation) of three different mitogen-activated protein kinases (MAPK)—p38, p44/42 (Erk 1/2) and p46/54 (SAPK/JNK-1/2) after Hsp 27 addition, we stimulated human MØ at different time points and measured activated p38, Erk 1/2 and JNK 1/2 using the respective antibodies against the phosphorylated forms of the MAPKs. […]

p44/42 (Erk 1/2) = assay: Immunoblot for activation (phosphorylation) of Erk 1/2 in human MØ; format: cell-based; conditions: after addition of Hsp 27 2 μg/ml
Description: Monocytes (1.5×10^6 cells) were cultured in serum free medium for 2 hrs and then stimulated with Hsp 27 (2 μg/ml) for different time periods (1 min to 3 hrs). Western blot analysis was performed, essentially as described previously (29). Briefly, cells were lysed using a buffer consisting of 1% Nonidet P-40, 50 mM HEPES (pH 7.2), 100 mM NaCl, 2 mM EDTA, 1 mM pyrophosphate, 2 mM Na3VO4, 10 mM NaF, 1 mM PMSF, 10 μg/ml leupeptin and 10 μg/ml aprotinin. Postnuclear supernates were harvested after centrifugation of the lysate for 15 min at 14,000 g at 4° C. […] Antibody-antigen complexes were detected with the aid of HRP-conjugated anti-rabbit secondary antibody (1:2000 dilution) (New England Biolab) followed by detection of the bands with ECL reagent (NEN Life Science Products). […]
as §2

p46/54 (SAPK/JNK-1/2) = assay: Immunoblot for activation (phosphorylation) of SAPK/JNK in human MØ; format: cell-based
Description: as §1, §2

MAPKAPKinase-2 = format: cell-based, human
MØ = MØ conversion (differentiation) into immature dendritic cells by IL-4 plus GM-CSF; format: cell-based; conditions: Hsp27 added to MØ cultures at the initiation of conversion
Description: In a preferred method for obtaining dendritic cells in vitro, isolated MØ are are first stimulated to undergo conversion (differentiation) into immature dendritic cells, and then stimulated to mature into fully active or competent dendritic cells. Conversion can be stimulated or promoted in vitro by any effective treatment. For example, conversion can be promoted by treating the MØ with an effective amount of IL-4 and an effective amount of GM-CSF, in accordance with conventional techniques. Typically, the IL-4 and GM-CSF treatment is for approximately 3-4 days. One indication of conversion is expression of CD1a. For guidance concerning in vitro conversion of MØ to immature dendritic cells, see, e.g., Chapius et al., 1997, Eur. J. Immunol. 27:431-441.
(§3) Hsp27 added to MØ cultures at the initiation of conversion inhibited differentiation of MØ to dendritic cells mediated or promoted by the combination of IL-4 plus GM-CSF.

immature dendritic cells = assay: Maturation of immature dendritic cells (CD83 expression); format: cell-based
Description: Preferably, the MØ are not brought into contact with Hsp27 before their conversion into immature dendritic cells, because Hsp27 inhibits the conversion. After conversion, however, Hsp27 acts as a potent promoter of maturation by the immature dendritic cells. […] Dendritic cell maturation is detectable as early as 24 hours after initiation of Hsp27 treatment. Preferably, however, Hsp27-induced maturation is allowed to proceed for 48 to 72 hours. One useful indication of dendritic cell maturation is expression of CD83.
as §3

[4] = after addition of Hsp 27 2 μg/ml

polymyxin B [reference compound]
effect on Hsp 27 induced MØ IL-10 production (human MØ [1]; polymyxin B 200 U/ml together with Hsp 27 2 μg/ml): could not inhibit

C[S+]([O-])c1ccc(-c2nc(-c3ccncc3)c(-c3ccc(F)cc3)[nH]2)cc1 (centres unmarked) [SB203580, reference compound]
inhibition of Hsp 27 induced MØ IL-10 production (human MØ [1]): approximately 80% | TNFα induced by Hsp 27 blocked (human MØ [2]): 90%

heat shock protein-27 [Hsp 27]
IL-10(pg/10^6 cells/ml) x ± SEM (human MØ [1]): 5267 ± 610 pg/10^6 cells/ml | MØ IL-10 production (human MØ [1]): approximately 3400 pg/ml | increase in IL-10 as compared to SEB+MDP (human MØ [1]): approximately 3 fold | increase in IL-10 relative to SEB+MDP (human MØ [1]): 2.5-3.5 | optimum concentration for Hsp 27 induced MØ IL-10 production (human MØ [1]; dose-dependent, FIG. 1B): 1 to 5 µg/mL | MØ TNFα production (human MØ [2]; 16-18 hrs): 483 ± 74 pg/mL | IL-12(pg/10^6 cells/ml) x ± SEM (Normal control monocytes): 3428 ± 1102 pg/10^6 cells/ml | increase in IL-12 as compared to SEB+MDP (Normal control monocytes): approximately 3 fold | increase in IL-12 relative to SEB+MDP (Normal control monocytes): 2.5-3.5 | IL-10 mRNA levels relative to control MDP+SEB induced levels [3]: 3.2 fold | increase in IL-10 mRNA levels compared to only adherence stimulated MØ ([3]; Hsp 27 2 μg/ml, 8-9 hrs): ~7.2 fold | persistence of p38 MAPK activation (p38 MAPK): up to 180 min | time at which p38 MAPK phosphorylation was clearly increased (p38 MAPK): 20 min | time of maximal stimulation of p38 MAPK (p38 MAPK): 40 min | time at which Erk 1/2 phosphorylation was clearly increased (p44/42 (Erk 1/2)): 20 min | time of maximal stimulation of Erk 1/2 (p44/42 (Erk 1/2)): 40 min | time at which JNK 1/2 phosphorylation was clearly increased (p46/54 (SAPK/JNK-1/2); [4]): 20 min | time of maximal stimulation of JNK 1/2 (p46/54 (SAPK/JNK-1/2); [4]): 40 min | induction of P-p54 JNK (p46/54 (SAPK/JNK-1/2); compared to activation of p38 and Erk): only minimal | MAPKAPKinase-2 activity versus adherence stimulated untreated MØ lysate (MAPKAPKinase-2): significantly increased | effect on differentiation of MØ to dendritic cells promoted by IL-4 plus GM-CSF (MØ): inhibited | effect on maturation of immature DC to mature antigen-presenting DC (immature dendritic cells; Hsp27 added after initial differentiation into DC (day 4 of induction)): strongly promoted | time at which dendritic cell maturation is detectable (immature dendritic cells; after initiation of Hsp27 treatment): ≥ 24 h

COc1cccc(-c2cc(=O)c3ccccc3o2)c1N [PD98059, reference compound]
effect on Hsp 27 induced MØ IL-10 production (human MØ [1]): did not have any inhibitory effect | TNFα induced by Hsp 27 blocked (human MØ [2]; inhibitor 10 μM for 2 hrs before Hsp 27 2 μg/ml): 68%

TNFα
increase in IL-10 levels (human MØ [1]; exogenous addition of 100 U/ml TNFα): 1.5 fold
